Data as given in ChEMBL document CHEMBL3627609, “A fragment of the Escherichia coli ClpB heat-shock protein is a micromolar melanocortin 1 receptor agonist” (Bioorg Med Chem Lett, 2015).
The source made the active and inactive calls. The calls are words filed in the database; no cut-off is given here.

Legend:
[1] = target: Melanocortin receptor 3 (Mus musculus) (UniProt P33033); experiment: Agonist activity at mouse melanocortin 3 receptor expressed in HEK293 cells at 100 uM by AlphaScreen cAMP assay; format: functional, cell-based
Sequence of Melanocortin receptor 3 (Mus musculus) (P33033 whole entry): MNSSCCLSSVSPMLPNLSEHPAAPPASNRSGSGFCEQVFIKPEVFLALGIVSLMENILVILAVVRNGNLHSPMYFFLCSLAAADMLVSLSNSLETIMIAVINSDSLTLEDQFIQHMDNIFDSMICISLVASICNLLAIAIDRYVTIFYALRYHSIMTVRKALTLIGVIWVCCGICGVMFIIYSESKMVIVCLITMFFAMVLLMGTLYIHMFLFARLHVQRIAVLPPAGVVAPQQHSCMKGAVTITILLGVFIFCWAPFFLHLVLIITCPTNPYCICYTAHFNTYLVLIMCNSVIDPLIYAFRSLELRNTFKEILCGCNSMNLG

[2] = target: Melanocyte-stimulating hormone receptor (Mus musculus, UniProt Q01727); experiment: Agonist activity at mouse melanocortin 1 receptor expressed in HEK293 cells by AlphaScreen cAMP assay; format: functional, cell-based
Sequence of Melanocyte-stimulating hormone receptor (Q01727 whole entry): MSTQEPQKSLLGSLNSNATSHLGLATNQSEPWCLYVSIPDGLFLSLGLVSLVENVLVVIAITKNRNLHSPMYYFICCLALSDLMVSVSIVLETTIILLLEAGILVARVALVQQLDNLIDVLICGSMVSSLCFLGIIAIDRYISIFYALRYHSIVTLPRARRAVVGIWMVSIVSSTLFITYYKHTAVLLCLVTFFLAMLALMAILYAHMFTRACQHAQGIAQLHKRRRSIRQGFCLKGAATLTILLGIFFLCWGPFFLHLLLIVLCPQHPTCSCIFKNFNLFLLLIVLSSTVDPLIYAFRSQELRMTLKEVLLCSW

Melanocortin receptor 4 = Melanocortin receptor 4 (Mus musculus, UniProt P56450); experiment: Agonist activity at mouse melanocortin 4 receptor expressed in HEK293 cells by AlphaScreen cAMP assay; format: functional, cell-based
Sequence of Melanocortin receptor 4 (P56450 whole entry): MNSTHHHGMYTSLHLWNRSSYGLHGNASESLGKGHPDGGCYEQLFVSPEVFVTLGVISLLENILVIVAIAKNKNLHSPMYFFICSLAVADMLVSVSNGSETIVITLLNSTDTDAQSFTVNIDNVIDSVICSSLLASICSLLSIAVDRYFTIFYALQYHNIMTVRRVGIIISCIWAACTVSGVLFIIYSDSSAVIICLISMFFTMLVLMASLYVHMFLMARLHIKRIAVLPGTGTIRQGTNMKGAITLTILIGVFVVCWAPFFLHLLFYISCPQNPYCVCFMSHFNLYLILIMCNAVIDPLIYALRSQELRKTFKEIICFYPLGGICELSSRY

[3] = target: Melanocortin receptor 3 (Mus musculus) (UniProt P33033); experiment: Antagonist activity at mouse melanocortin 3 receptor expressed in HEK293 cells using NDP-MSH as agonist by Schild analysis; format: cell-based
[4] = target: Melanocortin receptor 4 (Mus musculus) (UniProt P56450); experiment: Antagonist activity at mouse melanocortin 4 receptor expressed in HEK293 cells using NDP-MSH as agonist by Schild analysis; format: cell-based
Sequence of Melanocortin receptor 4 (Mus musculus) (P56450 whole entry): as above

[5] = target: Melanocortin receptor 5 (Mus musculus) (UniProt P41149); experiment: Agonist activity at mouse melanocortin 5 receptor expressed in HEK293 cells at 100 uM by AlphaScreen cAMP assay; format: functional, cell-based
Sequence of Melanocortin receptor 5 (Mus musculus) (P41149 whole entry): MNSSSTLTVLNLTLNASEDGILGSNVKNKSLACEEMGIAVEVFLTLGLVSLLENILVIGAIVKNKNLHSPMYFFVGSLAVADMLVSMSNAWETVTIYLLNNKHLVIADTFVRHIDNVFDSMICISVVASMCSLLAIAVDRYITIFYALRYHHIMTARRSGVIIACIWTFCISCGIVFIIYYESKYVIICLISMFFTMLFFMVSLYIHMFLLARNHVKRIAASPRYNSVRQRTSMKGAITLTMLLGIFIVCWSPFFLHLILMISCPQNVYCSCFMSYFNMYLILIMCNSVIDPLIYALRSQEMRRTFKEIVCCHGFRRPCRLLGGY

Substance: Ac-EIAEVLARWTGIPV-NH2
- Activity [1]: 30%
- EC50 [2]: 41 µM
- EC50 (Melanocortin receptor 4): > 100 µM
- inhibition [3]: inactive
- inhibition [4]: inactive
- Activity [5]: 50%
